Test results as given in patent US20170327786A1 (Biogen MA Inc., priority 2014, published 2017).
Like-named read-outs stand apart in the source and are kept apart here.

Assays:
Cell Line B [1] = assay: Alternative antioxidants as replacement for hypotaurine, Cell Line B waste accumulation and culture performance; type: cell-based
Protocol: Taurine is the by-product of hypotaurine metabolism. Therefore, cell culture performance when 8 mM taurine was added to the feed medium was compared to cell culture performance when 8 mM of hypotaurine was added to the feed medium. Initial cell density was one million cells (1e6).
Cysteamine is a precursor of hypotaurine. […] Initial cell density was one million cells (1e6). The effects of glutathione, another type of antioxidant, were also explored.

CHO cells = assay: Fed-batch culture of CHO cells with GABA-supplemented feed medium; type: cell-based, Chinese hamster
Protocol: The impact of gamma-aminobutyric acid (GABA) levels in the culture on cell density (growth), viability, and lactate concentration was evaluated in CHO cells in a fed-batch process (FIG. 9).
Cryopreserved CHO cells were thawed and maintained in 500 mL, 1000 mL or 3000 mL shake flasks with 100 mL, 200 mL or 1000 mL working volumes using cell culture medium CM3 and were passaged every 2 to 4 days. For maintenance cultures, the incubator was controlled at 36° C. and 5% CO2. A 5 liter (L) glass Applikon vessels using Finesse TruBio DV controllers (Finesse Solutions, San Jose, Calif.) were used for the fed-batch process. Bioreactors were seeded with an initial working volume of 2.5 L at a constant seed. For the control process, feed medium, CF2b, was given on day 3, day 5 and daily thereafter (starting on day 6) until the day before harvest and culture termination. The control process lasted 15 days with harvest and culture termination on day 15. CF2b is designated as a complete feed, comprised of all necessary nutritional elements including glucose, amino acids, vitamins, and metals. For GABA culture, feed medium was supplemented with 8 mM of GABA. The GABA culture lasted 17 days with harvest and culture termination on day 17. The complete feed amount was calculated as a predetermined fixed percentage based on culture volume. Glucose is maintained by the feeding strategy above 2 g/L in general by the bolus feeds and is not limiting. Culture temperature was set at 35° C. and medium pH was controlled at 7.1±0.2 by the addition of either 1 M sodium carbonate or CO2 gas. Dissolved oxygen (DO) was maintained at 30% with air sparge, enriched with oxygen as necessary, through a drilled hole sparger. Agitation was maintained between 200 and 400 rpm throughout the culture to limit total gas flow. An air overlay was maintained between 0.005 and 0.02 gas volume flow per unit of liquid volume per minute (vvm).

Cell Line B [2] = assay: Fed-batch culture of Cell Line B with hypotaurine feed medium; type: cell-based
Protocol: The control feed medium contained 0 mM hypotaurine. The hypotaurine feed medium contained 8 mM hypotaurine. […] The concentration of hypotaurine in the bioreactor on Day 16 was approximately 2.7 mM. […] Initial cell density was one million cells (1e6). The effects of hypotaurine were evident starting on Day 10.

Cell Line B [3] = test system: Cell Line B
Cell Line B [4] = test system: Cell Line B; remark: listed apart in the source
Protocol: Cell Line B expressed the polypeptide Lingo. […] Feed medium was added daily from Day 1 to Day 15 to the cell culture. […] Initial cell density was one million cells (1e6).

Cell Line A = test system: Cell Line A
Protocol: Cell Line A expressed the polypeptide Neublastin. […] Feed medium was added daily from Day 2 to Day 12 to the cell culture. […] Initial cell density was one million cells (1e6).

[5] = feed medium supplemented with 8 mM GABA vs control
[6] = 8 mM hypotaurine feed medium vs control feed with 0 mM hypotaurine
[7] = 18 mM choline chloride feed medium vs control feed with 3 mM choline chloride
[8] = 9 mM choline chloride feed medium vs control feed with 3 mM choline chloride

**Q.** With `NCCS(=O)(=O)O` [taurine] as the compound, how does the “cell culture performance (growth, viability, ammonium concentration, titer) as replacement for hypotaurine” value (“cell culture performance” below) (Cell Line B [1]; 8 mM taurine in feed medium vs 8 mM hypotaurine in feed medium) read?
**A.** not able to serve as a replacement for hypotaurine

**Q.** What does the source list for `NCCCC(=O)O` [GABA, Gamma-Aminobutyric Acid]?
**A.** growth (viable cell density) (CHO cells; feed medium CF2b supplemented with 8 mM GABA vs unsupplemented control feed): higher; delay of the onset of a high lactate phenotype compared to control (CHO cells; feed medium supplemented with 8 mM GABA): about 2 days; lactate accumulation (CHO cells; [5]): lower; viability (CHO cells; [5]): higher; culture duration (harvest and culture termination) (CHO cells; feed medium supplemented with 8 mM GABA, control process lasted 15 days): 17 days

**Q.** How did the “cell culture performance” value (Cell Line B [1]; 1.3 mM glutathione/18 mM choline chloride in feed vs 8 mM hypotaurine and 18 mM choline chloride) turn out when `N[C@@H](CCC(=O)N[C@@H](CS)C(=O)NCC(=O)O)C(=O)O` [glutathione] was run?
**A.** not able to serve as replacements for hypotaurine

**Q.** With `NCCS` [Cysteamine, cysteamine] as the compound, how does the “cell culture performance” value (Cell Line B [1]; 3 mM cysteamine/18 mM choline chloride in feed vs 8 mM hypotaurine and 18 mM choline chloride) read?
**A.** not able to serve as replacements for hypotaurine

**Q.** Which results are given for `NCCS(=O)O` [Hypotaurine, hypotaurine]?
**A.** day from which the effects were evident (Cell Line B [2]; 8 mM hypotaurine feed medium): 10 days; ammonium accumulation (Cell Line B [2]; [6]): lower; titer (Cell Line B [2]; [6]): higher; viability (Cell Line B [2]; [6]): higher; growth (cell density) (Cell Line B [2]; 8 mM hypotaurine feed medium vs control feed with 0 mM hypotaurine, fed daily Day 1 to Day 15): higher; Day 10 (Effective) Hypotaurine Conc. (Cell Line B [2]; hypotaurine used alone, concentration in culture on Day 10, when effects became evident): 2.5 mM

**Q.** `C[N+](C)(C)CCO.[Cl-]` [Choline, choline chloride] was tested. Which “Effective Choline Conc.” value (Cell Line B [3]; Day 6, high seed) did it give?
**A.** 4.0 mM

**Q.** And the culture viability crash (Cell Line B [3]; high seed 8×10^6 vc/mL, after day 12)?
**A.** occurred after day 12

**Q.** What about the “day from which the effects were evident” value (Cell Line B [4]; 18 mM choline chloride feed medium) of the same compound?
**A.** 9 days

**Q.** What about the ammonium accumulation (Cell Line B [4]; [7]) of the same compound?
**A.** lower

**Q.** And the viability (Cell Line B [4]; [7])?
**A.** higher

**Q.** And the titer (Cell Line B [4]; 18 mM choline chloride feed medium vs control feed with 3 mM choline chloride, Lingo)?
**A.** slightly higher

**Q.** What about the “growth (cell density)” value (Cell Line B [4]; 18 mM choline chloride feed medium vs control feed with 3 mM choline chloride, fed daily Day 1 to Day 15) of the same compound?
**A.** higher

**Q.** And the “Day 9 (Effective) Choline Conc.” value (Cell Line B [4]; choline used alone, concentration in culture on Day 9, when effects became evident)?
**A.** 4.65 mM

**Q.** And the “day from which the effects were evident” value (Cell Line A; 9 mM choline chloride feed medium)?
**A.** 3 days

**Q.** What about the ammonium accumulation (Cell Line A; [8]) of the same compound?
**A.** lower

**Q.** What about the viability (Cell Line A; [8]) of the same compound?
**A.** higher

**Q.** What about the titer (Cell Line A; 9 mM choline chloride feed medium vs control feed with 3 mM choline chloride, Neublastin) of the same compound?
**A.** higher

**Q.** And the “growth (cell density)” value (Cell Line A; 9 mM choline chloride feed medium vs control feed with 3 mM choline chloride, fed daily Day 2 to Day 12)?
**A.** higher

**Q.** What about the “Day 3 (Effective) Choline Conc.” value (Cell Line A; concentration in culture on Day 3, when effects became evident) of the same compound?
**A.** 0.90 mM
